Columns and labels:
Noxa = Noxa protein expression by Western blot in NCI-H1975 cells; assay type: cell-based; conditions: 3 to 4 µM for 24 h
Method: (§1) Cells were suspended in lysis buffer (50 mM Tris-HCl (pH 7.4), 150 mM NaCl, 1% triton X-100, 1% sodium deoxycholate, 0.1% SDS, 1 mM Na3VO4, 1 mM NaF, 1 mM EDTA, 1 mM PMSF, complete protease inhibitor cocktail) and cleared by centrifugation to obtain whole-cell lysates. Equal amounts of samples were separated by SDS-PAGE, transferred to nitrocellulose and immunoblotted with antibody indicated.

NCI-H1975 cells [1] = assay: NCI-H1975 xenograft model in nude mice; assay type: in vivo; conditions: 30 mg/kg/day oral, 3 weeks; for tumor growth: nude mice with subcutaneous NCI-H1975 tumors
Method: All animal studies were conducted according to protocols approved by the Animal Ethics Committee of the Institute of Zoology, Chinese Academy of Sciences, with the approval ID of AEC2011030205. All mice used in this study were bred and maintained in a specific pathogen-free environment. NCI-H1975 cells (2.5×10^6) were injected subcutaneously into the right flank of nude mice. […]. Animals were sacrificed when tumors reached 2 cm or if the mice appeared moribund to prevent unnecessary morbidity to the mice. At the time of the animals' death, tumors were excised; cells were separated and lyzed for Western blotting using anti-Noxa antibody and anti-Actin antibodies. Noxa expression was then quantified by densitometry analysis and normalized against Actin expression.
We tested the in vivo anti-tumor efficacy of V1801. […]. Animals were euthanized when they were treated for 3 weeks and the tumor samples were isolated and imaged (Fig. 6c). Proteins were extracted from tumor samples and Western blot assay was conducted. […]

NCI-H1975 cells [2] = assay: Cytotoxicity / cell proliferation (MTT assay) in NCI-H1975 cells; assay type: cell-based; conditions: for IC50: Homo sapiens, NCI-H1975
Method: (§2) Cell proliferation was determined using MTT assay. Cell viability was estimated by trypan blue dye exclusion. Externalization of phosphatidylserine was tested using an Annexin V/PI Apoptosis Detection kit (BD Biosciences, San Jose, CA) according to manufacturer's instruction.

EGFR kinase = target: T1, EGFR kinase (Homo sapiens, UniProt P00533); assay: In vitro EGFR kinase assay (ADP-Glo Kinase Assay Kit, EGFR Kinase Enzyme System); assay type: biochemical
T1 construct: purchased Promega
T1 sequence (P00533 25-1210): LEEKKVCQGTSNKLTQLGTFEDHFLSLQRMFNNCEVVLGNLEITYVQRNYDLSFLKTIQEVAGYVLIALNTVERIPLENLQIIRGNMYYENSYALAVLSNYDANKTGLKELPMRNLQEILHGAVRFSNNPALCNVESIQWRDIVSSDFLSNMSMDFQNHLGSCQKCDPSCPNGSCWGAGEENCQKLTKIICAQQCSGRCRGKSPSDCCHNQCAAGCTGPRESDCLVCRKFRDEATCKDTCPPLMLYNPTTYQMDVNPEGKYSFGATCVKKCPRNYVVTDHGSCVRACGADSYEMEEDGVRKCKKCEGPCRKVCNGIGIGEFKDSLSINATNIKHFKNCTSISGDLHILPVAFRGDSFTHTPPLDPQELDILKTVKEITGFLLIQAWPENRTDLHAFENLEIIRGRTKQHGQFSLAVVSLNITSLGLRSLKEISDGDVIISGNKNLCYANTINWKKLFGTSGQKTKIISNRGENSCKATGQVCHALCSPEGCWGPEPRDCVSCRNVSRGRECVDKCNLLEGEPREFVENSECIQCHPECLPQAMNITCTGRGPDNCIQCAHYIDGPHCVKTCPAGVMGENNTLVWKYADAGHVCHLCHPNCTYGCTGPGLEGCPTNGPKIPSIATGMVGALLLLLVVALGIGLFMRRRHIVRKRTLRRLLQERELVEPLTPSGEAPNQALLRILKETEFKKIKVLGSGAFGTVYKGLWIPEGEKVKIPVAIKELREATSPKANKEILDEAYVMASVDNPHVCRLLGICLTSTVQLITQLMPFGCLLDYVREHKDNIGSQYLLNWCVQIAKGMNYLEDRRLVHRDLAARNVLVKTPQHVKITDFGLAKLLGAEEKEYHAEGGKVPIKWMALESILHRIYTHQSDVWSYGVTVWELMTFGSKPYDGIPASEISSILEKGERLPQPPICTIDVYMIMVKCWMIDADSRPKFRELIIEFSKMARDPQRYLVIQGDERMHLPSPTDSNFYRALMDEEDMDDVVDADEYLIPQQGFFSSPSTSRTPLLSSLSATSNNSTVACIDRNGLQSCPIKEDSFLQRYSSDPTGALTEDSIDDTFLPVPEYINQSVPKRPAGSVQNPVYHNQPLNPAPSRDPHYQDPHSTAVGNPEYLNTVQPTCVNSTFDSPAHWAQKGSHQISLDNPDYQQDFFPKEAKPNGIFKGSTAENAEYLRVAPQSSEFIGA
Method: In vitro kinase inhibitory ability was determined using the ADP-Glo™ Kinase Assay Kit and EGFR Kinase Enzyme System (Promega), following the manufacturer's instructions.

A549 cells [3] = assay: Cell proliferation (MTT assay) in A549 cells; assay type: cell-based; conditions: wild type EGFR-expressing A549, MTT assay, 48 h, dose-dependent
Method: as §2, with “instruction. After staining with Hoechst 33258 at 10 µg/ml for 10 min, cell death was assessed by a fluorescence microscope (Leica).” for “instruction.”

NCI-H1975 cells [4] = assay: Soft-agar colony formation (clonogenic) assay; assay type: cell-based; conditions: 3 µM for 12 h, colonies after 2 weeks; compared to gefitinib or vehicle control
Text: To this end, trypsinized cells were suspended in RPMI 1640 medium containing 10% FBS and low-melting-point 0.3% agarose (Amresco, Solon, OH) and subsequently overlaid onto a solidified layer of RPMI 1640 medium containing 10% FBS and 0.6% agarose in 35 mm plate (5,000 cells/plate) in triplicate. After 2 weeks, the colonies were fixed in 90% ethanol and stained with 0.005% crystal violet (Sigma). The colony forming units with more than 100 cells were counted using a light microscope.

[5] = system: phosphorylated EGFR (p-EGFR); assay: Western blot of phosphorylated EGFR in NCI-H1975 cells; assay type: cell-based; conditions: 12 h
Method: as §1

[6] = system: phosphorylated EGFR (p-EGFR); assay: Western blot of phosphorylated EGFR in HCC827 cells; assay type: cell-based; conditions: gefitinib-sensitive HCC827 cells, 12 h
Method: as §1

NCI-H1975 cells [7] = assay: Apoptosis by Annexin V/PI staining and flow cytometry in NCI-H1975 cells; assay type: cell-based; conditions: 24 h
Method: as §2, with “instruction. After staining with Hoechst 33258 at 10 µg/ml for 10 min, cell death was assessed by a fluorescence microscope (Leica).” for “instruction.”

A549 cells [8] = assay: Apoptosis by Annexin V/PI staining and flow cytometry in A549 cells; assay type: cell-based; conditions: 24 h
Method: as §2, with “instruction. After staining with Hoechst 33258 at 10 µg/ml for 10 min, cell death was assessed by a fluorescence microscope (Leica).” for “instruction.”

NCI-H1975 cells [9] = assay: Combination of V1801 and bortezomib in NCI-H1975 cells (MTT, combination index); assay type: cell-based; conditions: 24 h
Method: as §2, with “instruction. After staining with Hoechst 33258 at 10 µg/ml for 10 min, cell death was assessed by a fluorescence microscope (Leica).” for “instruction.”
The interaction between compounds was quantified by determining the combination index (CI) calculated by the Chou–Talalay equation [29], [30]. The general equation for the classic isobologram is given by: CI = (D)1/(Dx)1+(D)2/(Dx)2. Where Dx indicates the dose of one compound alone required to produce an effect, (D)1 and (D)2 are the doses of compounds 1 and 2, respectively, necessary to produce the same effect in combination. From this analysis, the combined effects of the two compounds can be summarized as follows: CI<1 indicates synergism; CI = 1 indicates additive effect; and CI>1 indicates antagonism.

[10] = L858R/T790M-EGFR harboring NSCLC cells

IC50 (EGFR kinase)	Structure (SMILES)	IC50 (NCI-H1975 cells [2]; [10])	further results
–	COc1cc2ncnc(Nc3ccc(F)c(Cl)c3)c2cc1OCCCN1CCOCC1 [Gefitinib, N-(3-chloro-4-fluoro-phenyl)-7-methoxy-6-(3-morpholin-4-ylpropoxy) quinazolin-4-amine, reference compound]	–	Noxa protein level (Noxa): failed to up-regulate; tumor growth (NCI-H1975 cells [1]): does not show therapeutic benefit
> 10 µM	COc1cc2c(Nc3cc(C(F)(F)F)ccc3Cl)ncnc2cc1OCCCN=[N+]=[N-] [V1301]	> 10 µM	–
> 10 µM	CCCCCCc1cn(CCCOc2cc3ncnc(Nc4cc(C(F)(F)F)ccc4Cl)c3cc2OC)nn1 [V1302]	> 10 µM	–
> 10 µM	COc1cc2c(Nc3cc(C(F)(F)F)ccc3Cl)ncnc2cc1OCCCn1cnnn1 [V1303]	> 10 µM	–
> 10 µM	C=CCOc1cc2ncnc(Nc3cc(C(F)(F)F)ccc3Cl)c2cc1OC [V1304]	–	–
> 10 µM	COc1cc2c(Nc3cc(C(F)(F)F)ccc3Cl)ncnc2cc1OCCCN1CCOCC1 [V1305]	–	–
> 10 µM	COc1cc2c(Nc3cc(C(F)(F)F)ccc3Cl)ncnc2cc1OCCN1CCCCC1 [V1306]	–	–
0.702 µM	COc1cc2c(Nc3cc(C(F)(F)F)ccc3Br)ncnc2cc1OCCCN1CCCCC1 [V1801, N-(2-bromo-5-(trifluoromethyl)phenyl)-6-methoxy-7-(3-(piperidin-1-yl)propoxy)quinazolin-4-amine]	3 µM	inhibition of proliferation of NCI-H1975 cells (NCI-H1975 cells [2]; MTT assay, 48 h, dose-dependent): significant inhibitory effects; inhibition of proliferation of A549 cells (A549 cells [3]): significant inhibitory effects; clonogenic activity of NCI-H1975 cells (NCI-H1975 cells [4]): drastically inhibited; down-regulation of phosphorylated EGFR (p-EGFR) [5]: failed to down-regulate; de-phosphorylation of p-EGFR [6]: not; induction of apoptosis (NCI-H1975 cells [7]): induced apoptosis; induction of apoptosis (A549 cells [8]): induced apoptosis; Noxa protein level (Noxa): markedly up-regulated; combination index (CI) (NCI-H1975 cells [9]; V1801 (2 µM) combined with bortezomib 10 to 15 nM, CI<1 indicates synergism): less than 1; tumor growth (NCI-H1975 cells [1]): significantly inhibited tumor growth; Noxa expression in tumor samples (NCI-H1975 cells [1]; Western blot, compared with vehicle or gefitinib control mice): up-regulated
0.623 µM	COc1cc2c(Nc3ccc(Br)c(C(F)(F)F)c3)ncnc2cc1OCCCN1CCCCC1 [V1802]	7.8 µM	–
–	COc1cc2c(Nc3ccc4c(C(F)(F)F)cc(=O)oc4c3)ncnc2cc1OCCCN1CCCCC1 [V1803]	–	IC50 NCI-H1975 cells (NCI-H1975 cells [2]; [10]): Insoluble
2 µM	COc1cc2c(Nc3ccc4nc(C(F)(F)F)[nH]c4c3)ncnc2cc1OCCCN1CCCCC1 [V1804]	> 10 µM	–
0.12 µM	COc1cc2c(Nc3cc(C(F)(F)F)ccc3F)ncnc2cc1OCCCN1CCCCC1 [V1805]	> 10 µM	–
> 10 µM	COc1cc2c(Nc3cc(C(F)(F)F)ccc3Cl)ncnc2cc1OCCCC1CCCCC1 [V1806]	> 10 µM	–
> 10 µM	COc1cc2c(Nc3cc(C(F)(F)F)cc(C(F)(F)F)c3)ncnc2cc1OCCCN1CCCCC1 [V1807]	7.5 µM	–
2.67 µM	COc1cc2c(Nc3cc(C(F)(F)F)ccc3Cl)ncnc2cc1OCCCN1CCCCC1 [V1808]	18.2 µM	–
–	CC(C)C[C@H](NC(=O)[C@H](Cc1ccccc1)NC(=O)c1cnccn1)B(O)O [bortezomib, reference compound]	–	enhancement of V1801-caused inhibition of cell proliferation (NCI-H1975 cells [9]; bortezomib 10 to 15 nM with V1801 2 µM, MTT): significantly enhanced

From PMC3504066 (PLoS ONE, 2012)
